Where two headings read alike, the source gives them in different places.
Assays:
SW620 cells [1] = tested on: SW620 cells; parameters: method as in PMID 36297411; details: cited from earlier work
SW480 cells [2] = assay: Cell viability, sulforhodamine B (SRB) assay; type: cell-based; details: Homo sapiens
Method: (§1) SW480 (colon adenocarcinoma) and SW620 (derived metastatic) malignant cell lines, and the non-malignant lines HaCaT (human keratinocytes) and CHO-K1 (Chinese Hamster Ovary), were obtained from the European Collection of Authenticated Cell Cultures (ECACC, Porton Down, Salisbury, UK). The cells were maintained in Dulbecco’s Modified Eagle’s Medium (DMEM), supplemented with 10% equine serum previously inactivated at 56 °C, 1% penicillin/streptomycin, and 1% non-essential amino acids, and incubated at 37 °C in an atmosphere with 5% CO2. To carry out the experiments, the serum was diluted to 3% and additionally supplemented with […] insulin, […] transferrin, and 5 ng/mL selenium. Cells were used for experimentation when they reached 80–90% confluence, using a 1X trypsin enzymatic disintegration method. To avoid contamination by Mycoplasma spp., cell cultures were periodically analyzed by polymerase chain reaction (PCR).
(§2) Cell viability was evaluated with a sulforhodamine B (SRB) assay. This technique provides an index of protein contents in living and adherent cells, whose optical density can be related to cell concentration. Initially, 20,000 cells were seeded per well in 96-well culture plates. An initial adherence period of 24 h was performed at 37 °C, 5% CO2, and after this, the medium was replaced by another that contained the hybrid compounds in different concentrations. Then, the cells were left incubating for 24 and 48 h under the same conditions previously described. After the respective incubation times, the cells were fixed with trichloroacetic acid (50% v/v) for 1 h at 4 °C and stained with 0.4% (p/v) of SRB. Subsequently, washings with 1% acetic acid were carried out to eliminate possible nonspecific bindings, and after solubilization with 10 mM Tris-base, the absorbance was read at 492 nm in a microplate reader (Mindray MR-96A). All the experiments were carried out in triplicate.

CHO-K1 cells = assay: Cell viability, sulforhodamine B (SRB) assay, non-malignant cells; type: cell-based, Chinese Hamster; details: Cricetulus griseus
Method: as §1, §2

HaCaT cells = assay: as above; type: cell-based; details: Homo sapiens
Method: as §1, §2

SW620 cells [3] = assay: Cell viability, sulforhodamine B (SRB) assay; type: cell-based, human; details: Homo sapiens
Method: as §1, §2

SW480 cells [4] = assay: Antiproliferative activity (SRB, 0-8 days); type: cell-based; details: Homo sapiens, read-out: Cell Viability (%) ± SE; for viability at 2.5 µM: SW480, 2.5 µM; for viability at 40 µM: SW480, 40 µM
Method: For this experiment, the same colorimetric method (SRB) from the evaluation of cell viability was used, although with some modifications. Initially, 2500 cells per well were seeded in 96-well culture plates, and a 24 h adherence period was performed at 37 °C in a 5% CO2 atmosphere. […] For this assay, incubation periods of 0, 2, 4, 6, and 8 days were used, and the fixation, staining, and reading conditions were the same as those previously described for the cytotoxicity assay.

SW480 cells [5] = assay: Mitochondrial membrane potential (DiOC6/PI, flow cytometry); type: cell-based, human; details: SW480, treated with IC50, 48 h
Method: The fluorescent dyes PI and DIOC6 (3,3’-dihexyloxacarbocyanine iodide) were used to observe the depolarization of the mitochondrial membrane as well as possible cell membrane damage. For this method, 250,000 cells/well were initially seeded in 6-well culture plates during a 24 h adherence period at 37 °C in a 5% CO2 atmosphere. […] After treatment, cells were obtained by mechanical disaggregation, stained with DiOC6 and PI, and incubated at room temperature for 30 min in the dark. Ten thousand events were analyzed by flow cytometry with excitation at 488 nm and emission detection with green (530/15 nm) and red (610/20 nm) filters.

[6] = tested on: caspase 3, caspase 7, caspase 8 and p53 in SW480 cells; assay: Apoptotic biomarkers (ELISA); type: cell-based, human; details: SW480, treated with IC50, 48 h, vs control
Method: To provide an approach to the possible molecular mechanisms through which the hybrid compounds induce an effect on the cell lines, different proteins related to the process of death by apoptosis were determined. For this method, 1,000,000 cells were initially seeded per Petri dish, with an adherence period of 24 h at 37 °C in a 5% CO2 atmosphere. […] Later, the consumed medium was discarded, and after the addition of the versene buffer, the cells were obtained by mechanical disaggregation. The cells were then lysed with a cell lysis buffer and centrifuged to obtain the supernatant, which was used to determine the biomarkers of interest by enzyme-linked immunosorbent assays. These ELISA kits were provided by Elabscience Biotechnology Co., Houston, TX, USA [26].

SW480 cells [7] = assay: Cell cycle analysis (PI, flow cytometry); type: cell-based, human; details: SW480, treated with IC50 value, 48 h
Method: The method used for the recognition of cell cycle phases (G0/G1, S, G2/M) was based on staining with a fluorescent dye (propidium iodide—PI), as a direct relationship between fluorescence intensity and DNA content can be established. For this method, 250,000 cells/well were initially seeded in 6-well culture plates with an adherence period of 24 h at 37 °C in a 5% CO2 atmosphere. […] After treatment, cells were obtained by mechanical disaggregation, and the cell pellet was centrifuged and washed with a versene buffer. The cell pellet was fixed with 1.8 mL of cold 70% ethanol and kept at 4 °C overnight. Subsequently, two washes with a versene buffer were performed, and the pellet was resuspended in 300 µL of PBS containing 0.25 mg/mL of RNAsa and 0.1 mg/mL of PI. After a 30 min period of dark incubation, the fluorescence of 10,000 cells was analyzed using a FACS Canto II flow cytometer. The PI signal was analyzed with excitation at 488 nm using a sapphire laser, and fluorescence was detected at 610 nm. The data analysis was performed with FlowJo 10.8.1 software.

U937 cell line = tested on: U937 cell line; parameters: method as in PMID 33213229; details: cited from earlier work
HL-60 cell line = tested on: HL-60 cell line; parameters: method as in PMID 33213229; details: cited from earlier work
K562 cell line = tested on: K562 cell line; parameters: method as in PMID 33213229; details: cited from earlier work
HCT116 cells = tested on: HCT116 cells; parameters: method as in PMID 31097715; details: cited from earlier work
[8] = tested on: HCEC non-malignant epithelial cells; parameters: method as in PMID 31097715; details: HCEC non-malignant corneal epithelial cells; cited from earlier work

IC50 (SW480 cells [2]; SW480, 24 h) [µM]	IC50 (SW480 cells [2]; SW480, 48 h) [µM]	IC50 (SW620 cells [3]; SW-620, 24 h, 24 h) [µM]	IC50 (SW620 cells [3]; SW-620, 48 h, 48 h) [µM]	melting point [°C]	SMILES	IC50 (CHO-K1 cells; CHO-K1, 24 h) [µM]	IC50 (CHO-K1 cells; CHO-K1, 48 h) [µM]	IC50 (HaCaT cells; 24 h) [µM]	IC50 (HaCaT cells; 48 h) [µM]	other results
> 100	> 100	> 100	> 100	113 to 120	COc1cc(/C=C/C(=O)c2ccc(OCCCCCCCCCn3cc(Cn4cc(F)c(=O)[nH]c4=O)nn3)cc2)ccc1O [Compound 6g, (E)-5-fluoro-1-((1-(9-(4-(3-(4-hydroxy-3-methoxyphenyl)acryloyl)phenoxy)nonyl)-1H-1,2,3-triazol-4-yl)methyl)pyrimidine-2,4(1H,3H)-dione]	> 100	> 100	> 100	> 100	
75.3 ± 4.65	17.4 ± 1.16	> 100	45.1 ± 0.98		COc1cc(/C=C/C(=O)c2ccc(OCCn3cc(Cn4cc(F)c(=O)[nH]c4=O)nn3)cc2)ccc1O [Compound 6a, (E)-5-fluoro-1-((1-(2-(4-(3-(4-hydroxy-3-methoxyphenyl)acryloyl)phenoxy)ethyl)-1H-1,2,3-triazol-4-yl)methyl)pyrimidine-2,4(1H,3H)-dione]	82.8 ± 6.43	73.7 ± 1.07	71.8 ± 4.22	27.9 ± 2.53	viability at 2.5 µM (SW480 cells [4]; 48 h, 2 days after plating): 97.9 ± 1.55%; viability at 40 µM (SW480 cells [4]; 48 h, 2 days after plating): 16.2 ± 2.51%; viability at 2.5 µM (SW480 cells [4]; 96 h, 4 days after plating): 81.2 ± 2.8%; viability at 40 µM (SW480 cells [4]; 96 h, 4 days after plating): 8 ± 1.81%; viability at 2.5 µM (SW480 cells [4]; 144 h, 6 days after plating): 59.5 ± 3.45%; viability at 40 µM (SW480 cells [4]; 144 h, 6 days after plating): 2.04 ± 0.35%; viability at 2.5 µM (SW480 cells [4]; 192 h, 8 days after plating): 42.8 ± 1.3%; viability at 40 µM (SW480 cells [4]; 192 h, 8 days after plating): 0%; Dioc6 High population (live cells with high membrane polarization) (SW480 cells [5]): 84.9%; Dioc6 Low population (cells that lose membrane polarization) (SW480 cells [5]): 0%; PI+ population (membrane damage or dead cells) (SW480 cells [5]): 15%; changes in the mitochondrial membrane potential (SW480 cells [5]): do not induce significant changes; levels of biomarkers (caspase 3, caspase 7, caspase 8, p53) [6]: no significant differences; Cell cycle distribution, G0/G1 (SW480 cells [7]): 53.6%; Cell cycle distribution, G2/M (SW480 cells [7]): 22.2%; Cell cycle distribution, S Phase (SW480 cells [7]): 24.1%; Cell cycle distribution, Sub G0/G1 (SW480 cells [7]): 0%
48.4 ± 2.82	17.1 ± 0.8	90.2 ± 9.33	33.7 ± 1.03	124 to 129	COc1cc(/C=C/C(=O)c2ccc(OCCCn3cc(Cn4cc(F)c(=O)[nH]c4=O)nn3)cc2)ccc1O [Compound 6b, (E)-5-fluoro-1-((1-(3-(4-(3-(4-hydroxy-3-methoxyphenyl)acryloyl)phenoxy)propyl)-1H-1,2,3-triazol-4-yl)methyl)pyrimidine-2,4(1H,3H)-dione]	51.3 ± 2.86	46.5 ± 1.34	58.1 ± 3.3	18.4 ± 1.1	
30.4 ± 2.69	16.4 ± 0.97	83.9 ± 8.08	28.1 ± 1.85	61 to 65	COc1cc(/C=C/C(=O)c2ccc(OCCCCn3cc(Cn4cc(F)c(=O)[nH]c4=O)nn3)cc2)ccc1O [Compound 6c, (E)-5-fluoro-1-((1-(4-(4-(3-(4-hydroxy-3-methoxyphenyl)acryloyl)phenoxy)butyl)-1H-1,2,3-triazol-4-yl)methyl)pyrimidine-2,4(1H,3H)-dione]	26.3 ± 2.99	30.5 ± 2.18	45.4 ± 4.18	19.1 ± 1.68	
> 100	29.7 ± 2.43	> 100	> 100	98 to 102	COc1cc(/C=C/C(=O)c2ccc(OCCCCCCCCn3cc(Cn4cc(F)c(=O)[nH]c4=O)nn3)cc2)ccc1O [Compound 6f, (E)-5-fluoro-1-((1-(8-(4-(3-(4-hydroxy-3-methoxyphenyl)acryloyl)phenoxy)octyl)-1H-1,2,3-triazol-4-yl)methyl)pyrimidine-2,4(1H,3H)-dione]	> 100	> 100	> 100	35.1 ± 4.74	
> 100	> 100	> 100	> 100	129 to 135	COc1cc(/C=C/C(=O)c2ccc(OCCCCCCCCCCCCn3cc(Cn4cc(F)c(=O)[nH]c4=O)nn3)cc2)ccc1O [Compound 6h, (E)-5-fluoro-1-((1-(12-(4-(3-(4-hydroxy-3-methoxyphenyl)acryloyl)phenoxy)dodecyl)-1H-1,2,3-triazol-4-yl)methyl)pyrimidine-2,4(1H,3H)-dione]	> 100	> 100	> 100	> 100	

Further lines, the molecule ahead of its results:

SMILES	IC50 (SW480 cells [2]; SW480, 24 h) [µM]	IC50 (SW480 cells [2]; SW480, 48 h) [µM]	IC50 (SW620 cells [3]; SW-620, 24 h, 24 h) [µM]	IC50 (SW620 cells [3]; SW-620, 48 h, 48 h) [µM]	melting point [°C]	IC50 (CHO-K1 cells; CHO-K1, 24 h) [µM]	IC50 (CHO-K1 cells; CHO-K1, 48 h) [µM]	IC50 (HaCaT cells; 24 h) [µM]	IC50 (HaCaT cells; 48 h) [µM]	other results
O=c1[nH]c(=O)n(Cc2cn(CCCCCCCCCOc3cc(O)c4c(=O)c(-c5ccc(O)cc5)coc4c3)nn2)cc1F [F]										IC50 (SW620 cells [1]): 36.8 ± 0.71 µM
COc1cc(/C=C/C(=O)CC(=O)/C=C/c2ccc(O)c(OC)c2)ccc1O [Curcumin, curcumin]	84.6 ± 6.6	90.4 ± 1	164 ± 5.88	22.2 ± 2.37		20.2 ± 2.41	36.3 ± 4.17	> 100	28.8 ± 2.33	
CC1(C)CCC(C)(C)c2cc(NC(=O)c3ccc(C(=O)OCn4cc(F)c(=O)[nH]c4=O)cc3)ccc21 [B]										IC50 (U937 cell line): 8.21 µM; IC50 (HL-60 cell line): 9.87 µM; IC50 (K562 cell line): 10.6 µM
CC1=C(CCC(=O)OCn2cc(F)c(=O)[nH]c2=O)C(=O)C(C(C)C)=CC1=O [C]										IC50 (HCT116 cells): 16 µM; IC50 [8]: 52 µM
O=c1[nH]cc(F)c(=O)[nH]1 [Compound 5-FU, 5-fluorouracil, reference compound]	1540 ± 128	174 ± 19.1	899 ± 60.7	181 ± 18.8		544 ± 52.9	173 ± 14.6	> 1000	119 ± 2.84	

Source: paper PMC10144058, “New Hybrid Scaffolds Based on 5-FU/Curcumin: Synthesis, Cytotoxic, Antiproliferative and Pro-Apoptotic Effect” (Pharmaceutics, 2023)
